The record followed here is patent US20260234124A1, “Substituted Pyrazolyl-Pyridinyl Compounds as Ligand Directed Degraders of IRAK3” (Celgene Corporation, priority 2022, published 2026).

In general, Dmax refers to the largest share of the target that was removed. A high value points to a fuller loss of target.

In the assay the target is T1, IRAK3-ePL (Homo sapiens, UniProt Q9Y616).
T1 construct: expressed in transfected cells; host or cells: 293T CRBN OE/GSPT1 G575N KI cells, lentiviral transduction, puromycin selection
The assay is described as follows: IRAK3-ePL overexpressing degradation assay. The class given is cell-based. The following applies: IRAK3-ePL Lenti-X 293T CRBN/GSPT1 G575N cells, overnight incubation, top dose 10 μM; for Dmax: HEK-293T, maximum percentage loss of target protein; for DC50: read-out: IRAK3 ePL degradation EC50. Here is the method:
Example B1. IRAK3-ePL Overexpressing Degradation Assay
Stable cell lines were generated by the following protocol. 3×10^5 Lenti-X 293T cells (Clonetech) were plated in 0.8 mL of media in a 12-well plate and incubated overnight at 37° C./5% CO2. Packaging plasmid (0.4 μg, pMD), envelope plasmid (0.4 μg, pSP), and lentiviral transfer IRAK3-ePL plasmid (0.8 μg, IRAK3 sequence NM_007199.3) were mixed in 0.1 mL of Opti-MEM and incubated for 5 min. Simultaneously, 2.4 μL of Lipofectamine 2000 (Invitrogen) was added to 0.1 mL of Opti-MEM (Gibco) and incubated for 5 min. The plasmid DNA and lipofectamine were combined and the mixture was allowed to incubate for 20 min. DNA:Lipofectamine Opti-MEM mixtures were then added to previously plated cells dropwise and the cells were incubated for ~16 h at 37° C./5% CO2. Following incubation, the media was removed and 1.2 mL of fresh media was added per well. Lenti-X 293T cells were incubated for ~30 h at 37° C./5% CO2. […] Following incubation, media was removed from the Lenti-X 293T wells and passed through a […]. Part of the viral supernatant was used to transduce cells and the rest was stored at −80° C. Viruses were then added individually (0.5 mL virus) to each well of the 293T^CRBN OE/GSPT1 G575N KI cells, followed by addition of polybrene (10 mg/mL Millipore) to each well at a final concentration of 5.0 μg/mL. Cells were incubated for ~24 h at 37° C./5% CO2. After aspirating media off plates, cells were washed with DPBS, trypsinized and plated in a 10 cm dish in 15 mL of media and 1 μg/mL puromycin. Following incubation of cells for ~72 h at 37° C./5% CO2, media was aspirated off plates, and cells were washed with DPBS and trypsinized. The cells were plated in a 15 cm dish in 40 mL of media with 1.0 μg/mL Puromycin (Gibco) and incubated for ~72 h at 37° C./5% CO2. Following incubation, media was removed and cells were washed with DPBS and trypsinized. The majority of cells were resuspended in Invitrogen freezing media and stored away (~6-8×10^6 cells/vial).
IRAK3-ePL cellular dose response curve degradation assays were performed by the following protocol. Compounds to be tested were dispensed into a white 384-well tissue-culture treated plate using an acoustic liquid handler. Dilutions were prepared based on a 25 μL assay volume in duplicate 10 point 3-fold serial dilutions starting with a 10 μM dose. Negative control wells were included, which only contain 0.2% DMSO to calculate 100% signal. Positive control wells containing 30 μM Ataluren (luciferase inhibitor) were included to calculate the background signal level. All wells were backfilled to a final DMSO concentration of 0.2% to ensure DMSO uniformity across wells. IRAK3-ePL expressing cells (IRAK3-ePL Lenti-X 293T^CRBN/GSPT1 G575N) were washed, trypsinized, counted, and resuspended in fresh DMEM (Gibco) to give a cell concentration of 200,000 cells/mL. 25 μL of cells (5,000 cells/well) were dispensed into the wells of the 384-well plate prespotted with compounds in the previous step and incubated overnight at 37° C./5% CO2. Following incubation, the 384-well plate was taken out of the incubator and left at room temperature for 30 min. InCELL hunter reagent was prepared according to manufacturer's instructions (EA reagent, lysis buffer, and substrate reagent in a 1:1:4 ratio, Cat #96-0002, DiscoverX), which was added to the 384-well plate 25 μL per well. Following the incubation of the plate for 1 h at room temperature, the luminescence signal was read using a ViewLux plate reader. Data was processed and analyzed in ActivityBase software. In short, the average luminescence values of the positive control wells were subtracted from the rest of the wells for background correction, and all luminescence values were normalized to the DMSO control wells. The average value of the DMSO control wells was set to equal 100% of the relative IRAK3-ePL protein levels. […]

With `C[C@@H](Oc1cc(-c2cnn(C3CCN(CCOCCOCCOCCNC(=O)COc4ccc5c(c4)C(=O)N(C4CCC(=O)NC4=O)C5=O)CC3)c2)cnc1N)c1c(Cl)ccc(F)c1Cl` (stereo partly drawn) [Compound 16, N-(2-(2-(2-(2-(4-(4-(6-amino-5-((R)-1-(2,6-dichloro-3-fluorophenyl)ethoxy)pyridin-3-yl)-1H-pyrazol-1-yl)piperidin-1-yl)ethoxy)ethoxy)ethoxy)ethyl)-2-((2-(2,6-dioxopiperidin-3-yl)-1,3-dioxoisoindolin-5-yl)oxy)acetamide], the Dmax worked out at 19% and the DC50 was over 10 µM.

`Cc1ncsc1-c1ccc(CNC(=O)[C@@H]2C[C@@H](O)CN2C(=O)[C@@H](NC(=O)COCCOCCOCCOCCOCCOCCOCCN2CCC(n3cc(-c4cnc(N)c(O[C@H](C)c5c(Cl)ccc(F)c5Cl)c4)cn3)CC2)C(C)(C)C)cc1` [Compound 7, (2S,4R)-1-((S)-26-(4-(4-(6-amino-5-((R)-1-(2,6-dichloro-3-fluorophenyl)ethoxy)pyridin-3-yl)-1H-pyrazol-1-yl)piperidin-1-yl)-2-(tert-butyl)-4-oxo-6,9,12,15,18,21,24-heptaoxa-3-azahexacosanoyl)-4-hydroxy-N-(4-(4-methylthiazol-5-yl)benzyl)pyrrolidine-2-carboxamide]: the Dmax came to 38% and the DC50 was over 10 µM.

In the case of `Cc1ncsc1-c1ccc(CNC(=O)[C@@H]2C[C@@H](O)CN2C(=O)[C@@H](NC(=O)CCCN2CCC(n3cc(-c4cnc(N)c(O[C@H](C)c5c(Cl)ccc(F)c5Cl)c4)cn3)CC2)C(C)(C)C)cc1` [Compound 1, (2S,4R)-1-((S)-2-(4-(4-(4-(6-amino-5-((R)-1-(2,6-dichloro-3-fluorophenyl)ethoxy)pyridin-3-yl)-1H-pyrazol-1-yl)piperidin-1-yl)butanamido)-3,3-dimethylbutanoyl)-4-hydroxy-N-(4-(4-methylthiazol-5-yl)benzyl)pyrrolidine-2-carboxamide], the Dmax was found to be 8% and the DC50 is over 10 µM.

As to `Cc1ncsc1-c1ccc(CNC(=O)[C@@H]2C[C@@H](O)CN2C(=O)[C@@H](NC(=O)COCCOCCOCCOCCN2CCC(n3cc(-c4cnc(N)c(O[C@H](C)c5c(Cl)ccc(F)c5Cl)c4)cn3)CC2)C(C)(C)C)cc1` [Compound 4, (2S,4R)-1-((S)-17-(4-(4-(6-amino-5-((R)-1-(2,6-dichloro-3-fluorophenyl)ethoxy)pyridin-3-yl)-1H-pyrazol-1-yl)piperidin-1-yl)-2-(tert-butyl)-4-oxo-6,9,12,15-tetraoxa-3-azaheptadecanoyl)-4-hydroxy-N-(4-(4-methylthiazol-5-yl)benzyl)pyrrolidine-2-carboxamide], the Dmax amounted to 26% and the DC50 is over 10 µM.

As to `Cc1ncsc1-c1ccc(CNC(=O)[C@@H]2C[C@@H](O)CN2C(=O)[C@@H](NC(=O)COCCOCCOCCN2CCC(n3cc(-c4cnc(N)c(O[C@H](C)c5c(Cl)ccc(F)c5Cl)c4)cn3)CC2)C(C)(C)C)cc1` [Compound 3, (2S,4R)-1-((S)-14-(4-(4-(6-amino-5-((R)-1-(2,6-dichloro-3-fluorophenyl)ethoxy)pyridin-3-yl)-1H-pyrazol-1-yl)piperidin-1-yl)-2-(tert-butyl)-4-oxo-6,9,12-trioxa-3-azatetradecanoyl)-4-hydroxy-N-(4-(4-methylthiazol-5-yl)benzyl)pyrrolidine-2-carboxamide], the Dmax turned out to be 13% and the DC50 was over 10 µM.

On to `C[C@@H](Oc1cc(-c2cnn(C3CCN(CCNC(=O)COc4ccc5c(c4)C(=O)N(C4CCC(=O)NC4=O)C5=O)CC3)c2)cnc1N)c1c(Cl)ccc(F)c1Cl` (stereo partly drawn) [Compound 13, N-(2-(4-(4-(6-amino-5-((R)-1-(2,6-dichloro-3-fluorophenyl)ethoxy)pyridin-3-yl)-1H-pyrazol-1-yl)piperidin-1-yl)ethyl)-2-((2-(2,6-dioxopiperidin-3-yl)-1,3-dioxoisoindolin-5-yl)oxy)acetamide], for which the Dmax turned out to be 70% and the DC50 came out at 0.173 µM.

In the case of `C[C@@H](Oc1cc(-c2cnn(C3CCN(C4CCC5(CC4)CCN(C(=O)c4ccc6c(c4)CN(C4CCC(=O)NC4=O)C6=O)CC5)CC3)c2)cnc1N)c1c(Cl)ccc(F)c1Cl` (stereo partly drawn) [Compound 20, 3-(5-(9-(4-(4-(6-amino-5-((R)-1-(2,6-dichloro-3-fluorophenyl)ethoxy)pyridin-3-yl)-1H-pyrazol-1-yl)piperidin-1-yl)-3-azaspiro[5.5]undecane-3-carbonyl)-1-oxoisoindolin-2-yl)piperidine-2,6-dione], the Dmax amounted to 74% and the DC50 is 0.055 µM.

For the compound `C[C@@H](Oc1cc(-c2cnn(C3CCN(C4CCC5(CC4)CCN(C(=O)c4cccc6c4CN(C4CCC(=O)NC4=O)C6=O)CC5)CC3)c2)cnc1N)c1c(Cl)ccc(F)c1Cl` (stereo partly drawn) [Compound 21, 3-(4-(9-(4-(4-(6-amino-5-((R)-1-(2,6-dichloro-3-fluorophenyl)ethoxy)pyridin-3-yl)-1H-pyrazol-1-yl)piperidin-1-yl)-3-azaspiro[5.5]undecane-3-carbonyl)-1-oxoisoindolin-2-yl)piperidine-2,6-dione], the Dmax was determined as 59% and the DC50 came out at 0.105 µM.

For `C[C@@H](Oc1cc(-c2cnn(C3CCN(CCOCCOCCNC(=O)COc4ccc5c(c4)C(=O)N(C4CCC(=O)NC4=O)C5=O)CC3)c2)cnc1N)c1c(Cl)ccc(F)c1Cl` (stereo partly drawn) [Compound 15, N-(2-(2-(2-(4-(4-(6-amino-5-((R)-1-(2,6-dichloro-3-fluorophenyl)ethoxy)pyridin-3-yl)-1H-pyrazol-1-yl)piperidin-1-yl)ethoxy)ethoxy)ethyl)-2-((2-(2,6-dioxopiperidin-3-yl)-1,3-dioxoisoindolin-5-yl)oxy)acetamide], the Dmax came out at 27% and the DC50 is over 10 µM.

On to `C[C@@H](Oc1cc(-c2cnn(C3CCN(CCOCCNC(=O)COc4cccc5c4C(=O)N(C4CCC(=O)NC4=O)C5=O)CC3)c2)cnc1N)c1c(Cl)ccc(F)c1Cl` (stereo partly drawn) [Compound 9, N-(2-(2-(4-(4-(6-amino-5-((R)-1-(2,6-dichloro-3-fluorophenyl)ethoxy)pyridin-3-yl)-1H-pyrazol-1-yl)piperidin-1-yl)ethoxy)ethyl)-2-((2-(2,6-dioxopiperidin-3-yl)-1,3-dioxoisoindolin-4-yl)oxy)acetamide], for which the Dmax came out at 12% and the DC50 was over 10 µM.

With `C[C@@H](Oc1cc(-c2cnn(C3CCN(CCOCCOCCOCCNC(=O)COc4cccc5c4C(=O)N(C4CCC(=O)NC4=O)C5=O)CC3)c2)cnc1N)c1c(Cl)ccc(F)c1Cl` (stereo partly drawn) [Compound 11, N-(2-(2-(2-(2-(4-(4-(6-amino-5-((R)-1-(2,6-dichloro-3-fluorophenyl)ethoxy)pyridin-3-yl)-1H-pyrazol-1-yl)piperidin-1-yl)ethoxy)ethoxy)ethoxy)ethyl)-2-((2-(2,6-dioxopiperidin-3-yl)-1,3-dioxoisoindolin-4-yl)oxy)acetamide], the Dmax was found to be 12% and the DC50 is over 10 µM.

In the case of `C[C@@H](Oc1cc(-c2cnn(C3CCN(C4CCC5(CC4)CCN(C(=O)c4ccc6c(c4)C(=O)N(C4CCC(=O)NC4=O)C6)CC5)CC3)c2)cnc1N)c1c(Cl)ccc(F)c1Cl` (stereo partly drawn) [Compound 19, 3-(6-(9-(4-(4-(6-amino-5-((R)-1-(2,6-dichloro-3-fluorophenyl)ethoxy)pyridin-3-yl)-1H-pyrazol-1-yl)piperidin-1-yl)-3-azaspiro[5.5]undecane-3-carbonyl)-1-oxoisoindolin-2-yl)piperidine-2,6-dione], the Dmax stood at 36% and the DC50 is over 10 µM.
